The text below walks through data of US20100003301A1, “Bone Defect Filler, Release-Controlled Carrier, And Their Production Methods” (The University of Tokyo, priority 2006, published 2010).

Each structure is given as a SMILES string.

This data set can be described thus: Viscosity measurement of blocking agents (LVDV digital viscometer). In kind it is physicochemical. The following applies: viscosity could not be measured. The method, then: A Z printer 406 made by Z corporation was used to produce a bone filling material. “LVDV” which is a digital viscometer made by Brookfield Co., Ltd. was used to measure viscosity. A UL (ultra low viscosity) adapter was used when the viscosity was measured. Bending strength was measured by a rheometer made by Sun Science Co., Ltd.
Viscosity of blocking agents were measured by “LVDV” which is a digital viscometer made by Brookfield Co., Ltd. The results are shown in Table 2.

In the case of `NC(=O)CC[C@H](N)C(=O)O` [L-glutamine], the dissolution in water result is reported as “cannot be dissolved in water”.
